The data set can be described thus: solvent given as SMILES.

Compound `CC(C)(C)NC(=O)c1ccc(C(=O)NC(C)(C)C)c2c1c1c3ccc(Cl)cc3c3cc(Cl)ccc3c1c1c3ccc(Cl)cc3c3cc(Cl)ccc3c21` came in with an absorption maximum (in ClCCl) of 395 nm.

For `Cc1nc(-c2ccccc2)c2ccccn12`, the absorption maximum was 374 nm (in C1CCCCC1); 364 nm (in CC#N); 354 nm (in CO); 367 nm (in ClCCl); 338 nm (in O).

In the case of `c1ccc(-n2cccc2)cc1`, the absorption maximum reads like this: (in CC#N) 252 nm; (in CCCCCC) 254 nm.

Regarding `CCN(CC)c1ccc([N+]2=Cc3ccc4c5c(ccc4c3O[B-]2(c2ccccc2)c2ccccc2)C=[N+](c2ccc([N+](=O)[O-])cc2)[B-](c2ccccc2)(c2ccccc2)O5)cc1`, the absorption maximum by setting is: (in C1CCOC1) 547 nm; (in CC#N) 539 nm; (in CC(C)=O) 541 nm; (in Cc1ccccc1) 555 nm; (in ClCCl) 559 nm.

As to `CCC1=C(C)C(=O)n2c1cc1c(C)c(CCC(=O)OC)c(C)n1c2=O`, the absorption maximum is reported as 420 nm (in CC#N); 420 nm (in CC(C)=O); 424 nm (in CO); 425 nm (in CS(C)=O); 427 nm (in ClC(Cl)Cl); 420 nm (in c1ccccc1).

In turn, `COc1ccc2cc(-c3ccccc3CC#N)c(=O)oc2c1` had an absorption maximum (in ClC(Cl)Cl) of 336 nm.

`COc1ccc(-c2cc3c(o2)=CC2=C(C(F)(F)F)c4cc5oc(-c6ccc(OC)cc6)cc5n4[B-](F)(F)[N+]=32)cc1` had an absorption maximum (in ClC(Cl)Cl) of 723 nm.

With `Oc1ccccc1/C=N/c1cc2nc3ccccc3nc2cc1/N=C/c1ccccc1O`, for the setting “in CC#N”, the absorption maximum was determined as 403 nm.

On to `FC(F)(F)C(F)(F)C(F)(F)C1=NC2=C(c3ccc4ccc5cccc6ccc3c4c56)C=C3c4cc(-c5ccc6ccc7cccc8ccc5c6c78)c5nc(C(F)(F)C(F)(F)C(F)(F)F)nc6c(-c7ccc8ccc9cccc%10ccc7c8c9%10)cc(c4c56)=C4C=C(c5ccc6ccc7cccc8ccc5c6c78)C(=N1)C2C34` (configuration not stated), for which the absorption maximum runs as follows: (in C1CCOC1) 524 nm; (in Cc1ccccc1) 560 nm.

On to `CC1(C)C(=O)C=Cc2ccc(O)cc21`, for which the absorption maximum (in O) came out at 341 nm.

On to `COc1ccc(C2=C/C(=C\c3ccc([N+](=O)[O-])cc3)C(=O)N2CC(C)C)cc1`, for which the absorption maximum (in C1COCCO1) is listed as 465 nm.

The compound `CCCCCCCCC1(CCCCCCCC)c2cc3c(cc2-c2sc(-c4ccc(/C=C5\SC(N6CCCCC6)=NC5=O)c5nsnc45)cc21)C(CCCCCCCC)(CCCCCCCC)c1cc(-c2ccc(/C=C4\SC(N5CCCCC5)=NC4=O)c4nsnc24)sc1-3` showed an absorption maximum (in ClC(Cl)Cl) of 606 nm.

Under “in C1CCOC1”, `F[Si](c1ccccc1)(c1ccccc1)c1cccc2ccccc12` showed an absorption maximum of 286 nm.

With `O=C1C=C(Nc2ccc(F)cc2)C(=O)c2ccccc21`, the absorption maximum by setting is: (in CCCCCC) 445 nm; (in CO) 461 nm.

As for `Cc1cc(C(F)(F)F)nc2c1ccc1nc(-c3ccc(Cl)cc3)cn12`, the absorption maximum is reported as 362.6 nm (in CC#N); 376.5 nm (in CCCCCC); 368.6 nm (in CCCCOC(C)=O); 368.2 nm (in CCOC(C)=O); 359.6 nm (in CO); 375.2 nm (in Cc1ccccc1). Also, the absorption maximum reads like this: (in ClC(Cl)Cl) 369.2 nm; (in ClCCl) 366.6 nm; (in c1ccccc1) 375 nm.

As for `CCCCCCc1ccsc1-c1ccc(-c2sc(C(=O)O)cc2CCCCCC)s1`, the absorption maximum is given as 361 nm (in CC(C)=O); 357 nm (in CCCCCC); 352 nm (in CCO); 352 nm (in CO); 364 nm (in ClCCl); 365 nm (in O).

As to `C(=C\c1cc[n+]2ccc(/C=C/c3cc[nH]c3)cc2c1)/c1cc[nH]c1`, the absorption maximum (in CO) came out at 457 nm.

`C(#Cc1ccccc1)C(C#Cc1ccccc1)=Cc1ccc2cc(C=C(C#Cc3ccccc3)C#Cc3ccccc3)ccc2c1` displayed an absorption maximum (in ClC(Cl)Cl) of 418 nm.

`Cc1nc(-c2ccc(N3c4ccccc4C(c4ccccc4)(c4ccccc4)c4ccccc43)cc2)cc(-c2ccc(N3c4ccccc4C(c4ccccc4)(c4ccccc4)c4ccccc43)cc2)n1`: under “in Cc1ccccc1”, the absorption maximum was found to be 370 nm.

In the case of `CCC1=C(C)C2=Cc3cc4c(cc3B(O)N2C1=O)OCO4`, the absorption maximum stood at 383 nm (in CC#N), 381 nm (in CO), 384 nm (in CS(C)=O) and 389 nm (in ClC(Cl)Cl).

In turn, `N#Cc1c(N2CCCCC2)cc(-c2cccs2)c2c1-c1cccc3cccc-2c13` displayed an absorption maximum (in O) of 458 nm.

Take `CC1=C(c2ccc(N(C)C)cc2)C(C)=[N+]2C1=C(c1c(-c3ccccn3)nc3ccccn13)c1c(C)cc(C)n1[B-]2(F)F`: the absorption maximum (in ClCCl) came to 538 nm.

In turn, `N#Cc1ccc2c(c1)CCc1nc(-c3ccc([N+](=O)[O-])cc3)c3c(c1-2)CCc1cc(C#N)ccc1-3` gave an absorption maximum (in C1CCOC1) of 331 nm; an absorption maximum (in CC#N) of 349 nm; an absorption maximum (in CCCCCC) of 350 nm; an absorption maximum (in CCOC(C)=O) of 329 nm; an absorption maximum (in CO) of 333 nm; an absorption maximum (in CS(C)=O) of 360 nm. Further, the absorption maximum reads like this: (in Cc1ccccc1) 343 nm; (in ClCCl) 345 nm.

Take `C(#Cc1cccc2cc(-c3ccccc3)c3cc(-c4cc[b-]5c(c4)c(-c4ccccc4)cc4cccc(C#Cc6ccccc6)[n+]54)cc[b-]3[n+]12)c1ccccc1`: the absorption maximum (in C1CCCCC1) is reported as 546 nm.

On to `Cc1ccc(C2=C3C=CC(C#Cc4ccccc4)=[N+]3[B-](F)(F)n3c(C#Cc4ccccc4)ccc32)cc1`, for which the absorption maximum is, setting by setting: (in C1CCCCC1) 615 nm; (in C1CCOC1) 610 nm; (in C1COCCO1) 612 nm; (in CCOC(C)=O) 607 nm; (in CO) 605 nm; (in Cc1ccccc1) 614 nm. This compound also came in with an absorption maximum (in ClC(Cl)Cl) of 614 nm and an absorption maximum (in ClCCl) of 614 nm.

`COc1ccc(C(=O)/C=C2\C(=O)Nc3ccccc32)cc1`: the absorption maximum reads like this: (in C1COCCO1) 337 nm; (in CC#N) 335 nm; (in CC(C)(C)O) 345 nm; (in CC(C)O) 345 nm; (in CCCCO) 345 nm; (in CCOC(C)=O) 339 nm. In addition, the absorption maximum runs as follows: (in CN(C)C=O) 344 nm; (in CO) 343 nm; (in ClCCl) 339 nm; (in O) 347 nm.

In turn, `COc1ccc2c(c1)CCc1c(-c3ccccc3)c3n(c1-2)[B-](F)(F)[N+]1=C2C(=C(c4ccccc4)C1=N3)CCc1ccccc12` displayed an absorption maximum (in ClC(Cl)Cl) of 723 nm.

The values above are taken from the Deep4Chem optical property database.
